From PubChem BioAssay AID1194 (EPA DSSTox, 2008)
Active and inactive are the calls of the source.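 Rule for the calls: active = chemicals rated mutagenic or weakly mutagenic in the Salmonella bacterial test by one literature review, or positive overall by another; inconclusive = no clear call, values can overlap the other calls; inactive = the rest.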

Tested on: Salmonella typhimurium Ames mutagenicity, literature compiled
Assay: DSSTox (CPDBAS) Carcinogenic Potency Database Salmonella Mutagenicity
Outline: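 Calls derive from published evaluations rather than new testing; overall "positive" in EPA Gene-Tox, or "mutagenic"/"weakly mutagenic" per Zeiger, counts as active.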

SMILES | outcome
Nc1ncn[nH]1 | inactive; active
CC(=O)Nc1ccc2c(c1)Cc1ccccc1-2 | active
OC[P+](CO)(CO)CO | inactive; active
COC(=O)c1ccc(C(=O)OC)cc1 | inactive; active
Nc1ccc(Oc2ccc(N)cc2)cc1 | active
Cl/C=C/CCl | active; inactive
O=c1cc(CO)occ1O | active; inactive
OCC(O)CCl (stereo not given) | active; inactive
Nc1cccc(N)c1 | active
Cc1cc(Cc2ccc(N)c(C)c2)ccc1N | active
S=C(NC1CCCCC1)NC1CCCCC1 | inactive; active
Cc1ccc(N=Nc2c(O)ccc3ccccc23)c([N+](=O)[O-])c1 | active; inactive
CC(=O)Nc1ccc(C(=O)CCl)cc1 | active
Nc1cc(S(=O)(=O)O)cc2cc(S(=O)(=O)O)c(N=Nc3ccc(-c4ccc(N=Nc5c(S(=O)(=O)O)cc6cc(S(=O)(=O)O)cc(N)c6c5O)cc4)cc3)c(O)c12 | active
O=c1c(O)c(-c2ccc(O)cc2)oc2cc(O)cc(O)c12 | active
CCCN(CCC)c1c([N+](=O)[O-])cc(C(F)(F)F)cc1[N+](=O)[O-] | active
CN(C)c1ccc(Cc2ccc(N(C)C)cc2)cc1 | active
Nc1ccccc1N | active
CN(N=O)C(=O)c1ccccc1 | active
CCOc1ccc2c(c1)C(C)=CC(C)(C)N2 | inactive; active
ClCCCl | active
O=CC1CO1 (stereo not given) | active
NC(=O)/C(=C\c1ccc([N+](=O)[O-])o1)c1ccco1 | active

SMILES | outcome
CN(C)C(=O)Nc1cccc(C(F)(F)F)c1 | inactive
COP(=O)(OC)OC | active; inactive
CC1CN(/N=C/c2ccc([N+](=O)[O-])o2)C(=O)N1 (stereo not given) | active; inactive
Cc1cccc(N)c1 | inactive
O=NN1CCCCC1 | active
COc1ccc(N)c(OC)c1 | active; inactive
S=[Se] | active
COc1ccccc1[N+](=O)[O-] | active
CN(Cc1cnc2nc(N)nc(N)c2n1)c1ccc(C(=O)N[C@@H](CCC(=O)O)C(=O)O)cc1 | inactive
CN(C)C(=S)[S][Pb][S]C(=S)N(C)C | active
C#C[C@]1(O)CC[C@H]2[C@@H]3CCc4cc(O)ccc4[C@H]3CC[C@@]21C | inactive
C1CC2OC2CC1C1CO1 (stereo not given) | active
C/C=C/C=C/C(=O)O | inactive
Nc1cc(S(=O)(=O)[O-])cc2cc(S(=O)(=O)[O-])c(N=Nc3ccc(-c4ccc(N=Nc5c(S(=O)(=O)[O-])cc6cc(S(=O)(=O)[O-])cc(N)c6c5O)c(O)c4)cc3O)c(O)c12.[Cu].[Cu].[Na+].[Na+].[Na+].[Na+] | inactive; active
Cc1c(N)cccc1N | active; inactive
COP(=O)(OC)O/C(=C\Cl)c1cc(Cl)c(Cl)cc1Cl | inactive; active
NC(N)=S | inactive; active
c1ccc2sc(SSc3nc4ccccc4s3)nc2c1 | active; inactive
O=[N+]([O-])c1ccc(Cl)cc1 | active
Cc1ccc2ncccc2c1 | active
Nc1ccc(O)c(N)c1 | active; inactive
CN(C)c1ccc(N=Nc2ccccc2)cc1 | active; inactive
c1ccc(Nc2ccc(Nc3ccccc3)cc2)cc1 | active; inactive

SMILES | outcome
c1ccc2c(c1)Nc1ccccc1S2 | inactive
CN(C)N=Nc1ccccc1 | active
NC(=O)N(CCO)N=O | active
BrC(Br)Br | active
Cc1cc(N=Nc2ccccc2C)ccc1N | active
CCCCN(N=O)C(=N)N[N+](=O)[O-] | active
COc1ccc([N+](=O)[O-])cc1N=Nc1c(O)c(C(=O)Nc2cccc([N+](=O)[O-])c2)cc2ccccc12 | active; inactive
[O-][Br+2]([O-])O | active
O=C1CCO1 | active
CCCCC(CC)CO (stereo not given) | inactive; active
C=CC(=O)c1ccc2c(c1)OCO2 | inactive; active
Nc1ccccc1C(=O)O | inactive
Oc1ccccc1 | inactive
O=C1CN(/N=C/c2ccc([N+](=O)[O-])o2)C(=O)N1 | active
CC(C)(c1ccc(O)cc1)c1ccc(O)cc1 | inactive
CN(C)CCOC(C)(c1ccccc1)c1ccccn1 (stereo not given) | inactive
COc1ccc(C)cc1N | active
CC(=O)O[C@@H]1[C@@H](O)C2OC3C=C(C)C(=O)C(O)[C@@]3(CO)[C@]1(C)[C@]21CO1 (stereo not given in full) | inactive; active
CC(C)CCCCCCOC(=O)c1ccccc1C(=O)OCCCCCCC(C)C | inactive; active
CCCCN(CCCC)N=O | active; inactive
CC(=O)Nc1cccc2c1-c1ccccc1C2 | active; inactive
Nc1nc(-c2ccc([N+](=O)[O-])o2)cs1 | active
CCOc1ccc(NC(C)=O)cc1N | active

SMILES | outcome
CC(C)N(C(=O)SC/C(Cl)=C/Cl)C(C)C | active
CCCCCCCCCCCCCCCC(=O)OC/C=C(C)/C=C/C=C(C)/C=C/C1=C(C)CCCC1(C)C | inactive; active
CN1CCCC1=O | inactive; active
CCC[CH2][Sn]([CH2]CCC)([CH2]CCC)[O][Sn]([CH2]CCC)([CH2]CCC)[CH2]CCC | inactive
Nc1ccc2c(n1)[nH]c1ccccc12 | active
CCc1ccccc1 | inactive
OCl | inactive; active
CCN(Cc1cccc(S(=O)(=O)O)c1)c1ccc(C(=C2C=CC(=[N+](CC)Cc3cccc(S(=O)(=O)[O-])c3)C=C2)c2ccc(S(=O)(=O)O)cc2)cc1 | inactive; active
NC(=O)Cc1cccc2ccccc12 | active
Cc1cc(C(C)(C)C)c(O)c(C(C)(C)C)c1 | inactive
O=S1OCC2C(CO1)C1(Cl)C(Cl)=C(Cl)C2(Cl)C1(Cl)Cl (stereo not given) | inactive; active
O=C1OC(=O)c2ccccc21 | inactive; active
c1ccc(C2CO2)cc1 (stereo not given) | active; inactive
Clc1cccc(-c2ccc(Cl)c(Cl)c2Cl)c1Cl | inactive; active
ClC(Cl)C(Cl)(Cl)Cl | inactive
NNCCO | active; inactive
O=[O+][O-] | active; inactive
CCCNC(=O)NS(=O)(=O)c1ccc(Cl)cc1 | inactive; active
CCN(CC)C(=O)c1cccc(C)c1 | inactive; active
O=S1(=O)CC=CC1 | inactive; active
Nc1ccc2nc3ccccn3c2n1 | active
CC12CCC(CC1)C(C)(C)O2 | inactive; active
OCCOCCO | inactive; active

SMILES | outcome
C=CC(=O)O | inactive
CCSCCC(N)C(=O)O (stereo not given) | inactive
CC(C)[N+](=O)[O-] | active
NC(=O)N/N=C/c1ccc([N+](=O)[O-])o1 | active
CC(O)COC(C)(C)C (stereo not given) | active; inactive
COc1cc2c(c3oc4cccc(O)c4c(=O)c13)C1C=COC1O2 (stereo not given) | active; inactive
CN(C)[C@@H]1C(=O)C(C(N)=O)=C(O)[C@@]2(O)C(=O)C3=C(O)c4c(O)cccc4[C@@](C)(O)[C@H]3[C@H](O)[C@@H]12 | inactive
O=[N+]([O-])c1ccc(-c2nc(N3CCOCC3)c3ccccc3n2)s1 | active
C=O | active; inactive
Cc1ccc(O)c(O)c1 | inactive; active
[O]=[Mo](=[O])=[O] | inactive; active
O=C(N[C@H](CO)[C@H](O)c1ccc([N+](=O)[O-])cc1)C(Cl)Cl | inactive
O=c1cc[nH]c(=O)[nH]1 | inactive; active
CNC(=O)O/N=C/C(C)(C)SC | inactive
C=COC(C)=O | inactive
CCOC(=O)CBr | active
CC(C)(C)c1cc(O)ccc1O | inactive
O=S1(=O)OCCO1 | inactive
NN | active; inactive
Nc1ccc2c(c1)C(=O)c1ccccc1C2=O | active
O=C1N(CCO)CCN1/N=C/c1ccc([N+](=O)[O-])o1 | active
C[C@@H]1Cc2c(Cl)cc(C(=O)N[C@@H](Cc3ccccc3)C(=O)O)c(O)c2C(=O)O1 | inactive
c1ccc2c(c1)ccc1cc3c(ccc4ccccc43)cc12 | active

SMILES | outcome
COc1cccc2c1C(=O)c1c(O)c3c(c(O)c1C2=O)C[C@@](O)(C(=O)CO)C[C@@H]3O[C@H]1C[C@H](N)[C@H](O)[C@H](C)O1 | active
CCC(C)c1cc([N+](=O)[O-])cc([N+](=O)[O-])c1O (stereo not given) | inactive
C=CC=O | active; inactive
NC(N)=NC(N)=NCCc1ccccc1 | inactive; active
C=C(F)F | active
CCCCC1C(=O)N(c2ccccc2)N(c2ccccc2)C1=O | inactive
O=C/C=C/O | inactive
CCC(Cl)CCC(Cl)C(Cl)CC(Cl)C(Cl)C(Cl)CCl (stereo not given) | inactive; active
O | inactive
C/C=C/C=C/C=O | active
Cc1ccc(OP(=O)(Oc2ccc(C)cc2)Oc2ccc(C)cc2)cc1 | inactive; active
NC(N)=O | inactive; active
COc1cc(-c2ccc(N)c(OC)c2)ccc1N | active; inactive
FC(F)(F)CCl | inactive
Cc1cccc2cccnc12 | active
O=C1CCCCC1 | inactive; active
CCN(CC)C(=O)/C(Cl)=C(\C)OP(=O)(OC)OC | active; inactive
CCOc1ccc(NC(C)=O)cc1[N+](=O)[O-] | active; inactive
CNC(=O)CSP(=S)(OC)OC | active
Nc1ccccc1C(=O)OC/C=C/c1ccccc1 | inactive
